From patent US20230233671A1, “RNA MOLECULES” (Pfizer Inc., priority 2021, published 2023)

Key:
Vero cells = assay: VZV gE expression and subcellular localization in Vero cells transfected with VZV RNA constructs (imaging); type: cell-based, African green monkeys; details: for VZV RNA (Vero cells) MFI: Table 7, VZV gE RNA, see Example 2
Protocol: Expression of VZV RNA constructs were tested in transfected Vero cells, a kidney epithelial cell culture line derived from African green monkeys. Seeded Vero cells were transfected for 24 hours at 37° C., 5% CO2 with 10 ng, 25 ng, or 50 ng of RNA constructs (Table 5) using MESSENGERMAX™ in accordance with the manufacturer's instructions. Cells were washed three times with PBS+Ca/Mg, and fixed in 4% paraformaldehyde (PFA) for 20 minutes at 25° C. Cells were washed twice with 3% bovine serum albumin (BSA) in PBS+Ca/Mg. Primary and secondary staining antibodies were diluted in 0.1% saponin in goat serum. Cells were stained with a 1:1000 dilution of primary antibody for 1 hour at 37° C., washed three times with PBS+Ca/Mg, and incubated with secondary antibody (1:500) and CELLMASK™ (1:140,000) for 45 minutes at 37° C. Cells were then stained with Dapi (1:15,000-1:20,000) for 15 minutes at 25° C., and washed three times with PBS+Ca/Mg. Cells were analyzed for VZV gE expression and subcellular localization using an Opera PHENIX® Plus High-Content Screening System at 10× or 63× magnification.

VZV gE = assay: Serum VZV gE-binding IgG levels (LUMINEX) in immunized Balb/c mice; type: in vivo; details: for Day 28 (GMC), serum gE-binding IgG: 0.5 μg IM Day 0, Day 28 (prime only); for Day 34 (GMC), serum gE-binding IgG: 0.5 μg IM Days 0 and 28, Day 34 (six days after boost); for Day 42 (GMC), serum gE-binding IgG: 0.5 μg IM Days 0 and 28, Day 42 (two weeks after booster)
Protocol: VZV RNA-LNP vaccines were tested for their ability to induce IgG and T cell responses in Balb/c mice. 15 mice per group were immunized in accordance with the schedule and specifications in Table 9. Briefly, 15 mice per group were immunized intramuscularly (IM) on Day 0 and boosted IM on Day 28. Mice immunized with SHINGRIX® received 1, 2.5, or 5 μg, corresponding to 1/50, 1/20, and 1/10 of the human clinical dose (50 μg), respectively; mice immunized with gE_WT CO1 received 0.5 or 1 μg; mice immunized with ms3 CO1 received 0.5 μg; mice immunized with ms4 CO1 received 0.5 μg; mice immunized with gE_WT CO2 received 0.5 μg; mice immunized with lyophilized gE_WT CO1 received 0.5 or 1 μg. Saline was administered on Days 0 and 28 to a negative control group. Serum was collected from mice on Days 28 and 42 for characterization of VZV gE-binding IgG levels (LUMINEX® analyses). Spleens were harvested, and sera collected, from five mice in each group on Day 35 for cellular analyses.
Serum IgG levels were determined for each mouse sample using the LUMINEX® platform. Briefly, diluted sera were incubated in the dark in the presence of blocked, recombinant gE protein-bound single-plex microspheres (MAGPLEX® Microspheres, region 79) for 20±4 hours at 2-8° C., 300 rpm. A secondary antibody solution (R-phycoerythrin Conjugated AffiniPure F(ab)′2 Fragment Goat Anti-Mouse IgG F(ab)′2 Fragment Specific) was prepared at 1:250 in LXA-16 buffer. Plates were washed three times in LXA-20 (EIA-7), and secondary antibody was applied to each well of the assay plate. Plates were covered with aluminum sealers and incubated for 2 hours±15 minutes at 25° C., 300 rpm. Plates were washed three times with LXA-20 (EIA-7) buffer, and 100 ul LXA-20 was applied to each well. Plates were covered with aluminum sealers and incubated at 25° C., 300 rpm for a minimum of 4 minutes, or up to 2 hours. Plates were analyzed on a BIO-PLEX® Reader. IgG titers for Day, 28, 34 and 42 are show in Table 10 and FIGS. 17-19.

[1] = system: human embryonic kidney (HEK) 293T cells; assay: In vitro expression (IVE) of VZV RNA-LNP vaccines in HEK 293T cells (FACS); type: cell-based; details: for VZV RNA-LNPs (293T cells) MFI: Table 7; for VZV RNA-LNPs (293T cells) EC50 (ng/well): Table 7, FIG. 14, input RNA vs percentage of gE-expressing cells, 24 hours
Protocol: In vitro expression (IVE) analyses were conducted to assess the potency of VZV RNA-LNP vaccines. RNA constructs were formulated into LNPs as previously described in Example 3, and a range of input VZV RNA-LNP quantities was transfected into human embryonic kidney (HEK) 293T cells for 24 hours at 37° C., 5% CO2. Transfected cells were washed with DPBS, detached from plate wells using ACCUTASE®, and rinsed with cold PBS. Cells were subjected to live/dead staining, fixation, and permeabilization prior to FACS staining. Fixed and permeabilized cells were incubated with an anti-gE primary antibody (1:1000) for 45 minutes at 2-8° C., washed twice with BD PERM/WASH™ buffer and incubated with a goat anti-human kappa-PE secondary antibody (1:1000) for 30 minutes at 2-8° C. Cells were washed twice with BD PERM/WASH™ buffer, resuspended in 1×FACS buffer, and analyzed on a BD LSRII to determine the proportion of cells expressing VZV gE for each VZV RNA-LNP input. A titration curve was created whereby input RNA quantities were plotted against the percentage of gE-expressing cells to determine the EC50 of each VZV RNA-LNP vaccine.

| Substance | VZV RNA (Vero cells) MFI (Vero cells) | Day 28 (GMC), serum gE-binding IgG (VZV gE) | Day 34 (GMC), serum gE-binding IgG (VZV gE) | Day 42 (GMC), serum gE-binding IgG (VZV gE) | VZV RNA-LNPs (293T cells) MFI [1] | VZV RNA-LNPs (293T cells) EC50 (ng/well) [1] | subcellular localization of VZV gE (Vero cells; Vero cells, 50 ng at 63× and 25 ng at 10× magnification) |
| --- | --- | --- | --- | --- | --- | --- | --- |
| ms4 CO1: modRNA construct, ORF SEQ ID NO: 151, full length VZV gE with substitution Y582A | 981 | 3.55 | 112.7 | 598.57 | 1713 | 15 ng/well | – |
| ms3 CO1: modRNA construct, ORF SEQ ID NO: 149, VZV gE with deletion of aa 547-623, secreted | 497 | 3.98 | 29.5 | 370.11 | 663 | 231 ng/well | – |
| ms8: RNA constructs encoding VZV gE with deletion of the acidic domain aa 588-602 (SEQ ID NO: 6) | – | – | – | – | – | – | preferentially within cellular membranes |
